Converted amounts (≈) assume the structure as drawn. Read-outs that look alike come from different tables or passages of the source. Each block holds one molecule with its values, some of them ahead of it. Where a SMILES comes first, the peptide text is derived from it.
Experiments:
S. aureus CCARM3090 = assay: microbe, parasite or virus in culture; conditions: for MIC: Staphylococcus aureus, CCARM3090, 18 h, read-out: Minimal inhibitory concentration
Experimental: (§1) In order to evaluate the antimicrobial activity of the peptides prepared by the method of above 1, a minimal inhibitory concentration (MIC) value as the minimum concentration of a peptide, in which cells are not divided, was measured.
(§2) Specifically, the strains shown in Table 3 below were purchased, cultured in a medium having a constitutional composition suitable for each strain to a mid-log phase, and then diluted to a concentration of 2×10^4 cells/100 μl to prepare the product on a micro-titration plate (Nunc, USA). Then, PEP27, PEP27-1, PEP27-2 or PEP27-5 peptide synthesized in the above 1 was added to each well by serial dilution ½ times, followed by incubation at 37° C. for 18 hours.
(§3) Specifically, subject strains were prepared by the method of above 2, and were treated with the antibiotics, that is, meropenem, ceftazidime, ceftriaxone or vancomycin, respectively, followed by determining MICs of the antibiotics.

S. aureus ATCC29213 = assay: microbe, parasite or virus in culture; conditions: ATCC29213, 18 h; for MIC: Staphylococcus aureus, read-out: Minimal inhibitory concentration
Experimental: as §1, §2, §3

P. aeruginosa ATCC15692 = assay: microbe, parasite or virus in culture; conditions: ATCC15692, 18 h; for MIC: Pseudomonas aeruginosa, read-out: Minimal inhibitory concentration
Experimental: as §1, §2, §3

P. aeruginosa 4891 = assay: microbe, parasite or virus in culture; conditions: for MIC: Pseudomonas aeruginosa, 4891, 18 h, read-out: Minimal inhibitory concentration
Experimental: as §1, §2, §3

S. aureus MW2 = assay: microbe, parasite or virus in culture; conditions: for MIC: Staphylococcus aureus, MW2, 18 h, read-out: Minimal inhibitory concentration
Experimental: as §1, §2, §3

S. aureus USA300 = assay: microbe, parasite or virus in culture; conditions: for MIC: Staphylococcus aureus, USA300, 18 h, read-out: Minimal inhibitory concentration
Experimental: as §1, §2, §3

S. aureus CCARM3089 = assay: microbe, parasite or virus in culture; conditions: for MIC: Staphylococcus aureus, CCARM3089, 18 h, read-out: Minimal inhibitory concentration
Experimental: as §1, §2, §3

S. aureus CCARM3518 = assay: microbe, parasite or virus in culture; conditions: for MIC: Staphylococcus aureus, CCARM3518, 18 h, read-out: Minimal inhibitory concentration
Experimental: as §1, §2, §3

P. aeruginosa ATCC27853 = assay: microbe, parasite or virus in culture; conditions: ATCC27853, 18 h; for MIC: Pseudomonas aeruginosa, read-out: Minimal inhibitory concentration
Experimental: as §1, §2, §3

P. aeruginosa 4007 = assay: microbe, parasite or virus in culture; conditions: for MIC: Pseudomonas aeruginosa, 4007, 18 h, read-out: Minimal inhibitory concentration
Experimental: as §1, §2, §3

S. aureus ATCC25923 = assay: microbe, parasite or virus in culture; conditions: ATCC25923, 18 h; for MIC: Staphylococcus aureus, read-out: Minimal inhibitory concentration
Experimental: as §1, §2, §3

[1] = test system: red blood cells of a rat (Balb/c); conditions: 37° C., 1 hour
Experimental: In order to compare the cytotoxicity of the peptides prepared by the method of above 1, erythrocyte hemolytic activity of each of the synthesized peptides was measured.
Specifically, red blood cells of a rat (Balb/c, 6 weeks old, female) were diluted with PBS (pH 7.0) to a concentration of 8%, and PEP27, PEP27-1, PEP27-2 and PEP27-5 peptides were used for treatment of the cells at concentrations of 3.13, 6.25, 12.5, 25.01 50.0 and 100.0 μM/well, respectively, followed by reaction at 37° C. for 1 hour. Then, an amount of hemoglobin contained in the supernatant obtained by centrifugation at 1,000×g was determined by measuring the absorbance at a wavelength of 414 nm. As a control which is a standard for the degree of cell destruction, the absorbance of the obtained supernatant was measured after treatment using 1% Triton X-100 (Sigma, USA) and reaction at 37° C. for 1 hour. With reference to 100% erythrocytes hemolysis activity, hemolysis of each peptide was calculated from the measured absorbance using Equation 1 below. Erythrocyte destruction ability (%)=(Absorbance A−Absorbance B)/(Absorbance C−Absorbance B)×100 [Equation 1]
(wherein, absorbance A represents the absorbance of a reaction solution treated with each peptide measured at a wavelength of 414 nm; absorbance B represents the absorbance of a reaction solution treated with PBS measured at a wavelength of 414 nm; and absorbance C represents the absorbance of a reaction solution treated with 1% Triton X-100 measured at a wavelength of 414 nm).

L. monocytogens KCTC3710 = type: cell-based, Listeria monocytogenes; conditions: KCTC3710, 18 h
Experimental: as §1, §2

[2] = test system: Sa. typhimurium CCARM8009; type: cell-based, Salmonella typhimurium; conditions: Sa. typhimurium CCARM8009, antibiotics-tolerant; 37° C., 18 hours
Experimental: as §1, §2

[3] = test system: Sa. typhimurium CCARM8007; type: cell-based, Salmonella typhimurium; conditions: Sa. typhimurium CCARM8007, antibiotics-tolerant; 37° C., 18 hours
Experimental: as §1, §2

Sa. typhimurium KCTC1926 = type: cell-based, Salmonella typhimurium; conditions: KCTC1926, 18 h
Experimental: as §1, §2

HaCaT and MCF-7 cells = assay: MTT cytotoxicity; type: cell-based, human; conditions: 100 μM, 24 h, MTT, HaCaT and MCF-7 cells
Experimental: Specifically, Thiazolyl blue tetrazolium bromide (MTT, Merck KGaA) was used to determine the cytotoxicity of PEP27 and its analogs against HaCaT (human keratinocyte […], n=4 per condition) and MCF-7 (human breast adenocarcinoma, n=3 per condition) cells. The cells were cultured in Dulbecco's modified Eagle's medium (DMEM) supplemented with 10 heat-inactivated fetal bovine serum (FBS, Gibco, Grand Island, NY, USA) and 1% penicillin-streptomycin (Gibco) at a density of 2×10^4 cells/well (96-well plate). Peptides were then added at various concentrations and incubated for 24 h at 37° C., after which MTT (final concentration, 0.5 mg/mL) was added to each well and incubated for 4 h. The formazan product was solubilized in DMSO, and the absorbance at 570 nm was measured to […] cytotoxicity. Cells treated with 0.1% Triton X-100 were used as the 100% cytotoxic control sample.

E. coli CCARM1238 = type: cell-based, Escherichia coli; conditions: E. coli CCARM1238, antibiotics-tolerant; 37° C., 18 hours
Experimental: as §1, §2

E. coli CCARM1229 = type: cell-based, Escherichia coli; conditions: E. coli CCARM1229, antibiotics-tolerant; 37° C., 18 hours
Experimental: as §1, §2

E. coli ATCC25922 = type: cell-based, Escherichia coli; conditions: ATCC25922, 18 h
Experimental: as §1, §2

E. coli ATCC27325 = type: cell-based, Escherichia coli; conditions: ATCC27325, 18 h
Experimental: as §1, §2

B. subtilis KCTC1998 = type: cell-based, Bacillus subtilis; conditions: KCTC1998, 18 h
Experimental: as §1, §2

MIC (S. aureus CCARM3090): 512 µM (≈ 280 µg/mL)
MIC (S. aureus ATCC29213): 3 µM (≈ 1.64 µg/mL)
MIC (P. aeruginosa ATCC15692): 4 µM (≈ 2.19 µg/mL)
MIC (P. aeruginosa 4891): 16 µM (≈ 8.75 µg/mL)
MIC (S. aureus MW2): 32 µM (≈ 17.5 µg/mL)
MIC (S. aureus USA300): 32 µM (≈ 17.5 µg/mL)
MIC (S. aureus CCARM3089): 512 µM (≈ 280 µg/mL)
MIC (S. aureus CCARM3518): 64 µM (≈ 35 µg/mL)
MIC (P. aeruginosa ATCC27853): 2 µM (≈ 1.09 µg/mL)
MIC (P. aeruginosa 4007): 16 µM (≈ 8.75 µg/mL)
MIC (S. aureus ATCC25923): 16 µM (≈ 8.75 µg/mL)
SMILES: CC(C)(O/N=C(\C(=O)N[C@@H]1C(=O)N2C(C(=O)[O-])=C(C[n+]3ccccc3)CS[C@H]12)c1csc(N)n1)C(=O)O [Ceftazidime, ceftazidime]

MIC (S. aureus CCARM3090): 128 µM (≈ 49.1 µg/mL)
MIC (S. aureus ATCC29213): 2 µM (≈ 0.767 µg/mL)
MIC (P. aeruginosa ATCC15692): 2 µM (≈ 0.767 µg/mL)
MIC (P. aeruginosa 4891): 8 µM (≈ 3.07 µg/mL)
MIC (S. aureus MW2): 2 µM (≈ 0.767 µg/mL)
MIC (S. aureus USA300): 2 µM (≈ 0.767 µg/mL)
MIC (S. aureus CCARM3089): 64 µM (≈ 24.5 µg/mL)
MIC (S. aureus CCARM3518): 64 µM (≈ 24.5 µg/mL)
MIC (P. aeruginosa ATCC27853): 2 µM (≈ 0.767 µg/mL)
MIC (P. aeruginosa 4007): 4 µM (≈ 1.53 µg/mL)
MIC (S. aureus ATCC25923): 2 µM (≈ 0.767 µg/mL)
SMILES: C[C@@H](O)[C@H]1C(=O)N2C(C(=O)O)=C(S[C@@H]3CN[C@H](C(=O)N(C)C)C3)[C@H](C)[C@H]12 [Meropenem, meropenem]

SMILES: CSCC[C@H](N)C(=O)N[C@@H](Cc1c[nH]c2ccccc12)C(=O)N[C@@H](CCCCN)C(=O)N[C@@H](Cc1c[nH]c2ccccc12)C(=O)N[C@@H](Cc1ccccc1)C(=O)N[C@@H](Cc1c[nH]cn1)C(=O)N[C@@H](CC(N)=O)C(=O)N[C@H](C(=O)N[C@@H](CC(C)C)C(=O)N[C@@H](CO)C(=O)N[C@@H](CO)C(=O)NCC(=O)N[C@@H](CCC(N)=O)C(=O)N[C@@H](CC(C)C)C(=O)N[C@@H](CC(C)C)C(=O)N[C@@H](C)C(=O)N[C@@H](CC(=O)O)C(=O)N[C@@H](CCCCN)C(=O)N[C@@H](CCCNC(=N)N)C(=O)N1CCC[C@H]1C(=O)N[C@@H](C)C(=O)N[C@@H](CCCNC(=N)N)C(=O)N[C@@H](CC(=O)O)C(=O)N[C@@H](Cc1ccc(O)cc1)C(=O)N[C@@H](CC(N)=O)C(=O)N[C@@H](CCCNC(=N)N)C(=O)N[C@@H](CCCCN)C(N)=O)C(C)C [PEP27-1] (H-MWKWFHNVLSSGQLLADKRPARDYNRK-NH2)
Erythrocyte destruction ability ([1]; Peptide concentration 3.13 μM): 0%
Erythrocyte destruction ability ([1]; Peptide concentration 6.25 μM): 1.05%
Erythrocyte destruction ability ([1]; Peptide concentration 12.5 μM): 1.97%
Erythrocyte destruction ability ([1]; Peptide concentration 25 μM): 25.75%
Erythrocyte destruction ability ([1]; Peptide concentration 50 μM): 44.51%
Erythrocyte destruction ability ([1]; Peptide concentration 100 μM, 100% = 1% Triton X-100): 50.65%
Minimal inhibitory concentration (L. monocytogens KCTC3710): 64 µM (≈ 212 µg/mL)
Minimal inhibitory concentration (S. aureus CCARM3090; S. aureus CCARM3090, antibiotics-tolerant, 37° C., 18 hours): 16 µM (≈ 53.1 µg/mL)
Minimal inhibitory concentration (S. aureus ATCC29213): 32 µM (≈ 106 µg/mL)
Minimal inhibitory concentration (P. aeruginosa ATCC15692): 32 µM (≈ 106 µg/mL)
Minimal inhibitory concentration (P. aeruginosa 4891; 4891, 18 h): 32 µM (≈ 106 µg/mL)
Minimal inhibitory concentration (S. aureus MW2; S. aureus MW2, antibiotics-tolerant, 37° C., 18 hours): 32 µM (≈ 106 µg/mL)
Minimal inhibitory concentration (S. aureus USA300; S. aureus USA300, antibiotics-tolerant, 37° C., 18 hours): 32 µM (≈ 106 µg/mL)
Minimal inhibitory concentration (S. aureus CCARM3089; S. aureus CCARM3089, antibiotics-tolerant, 37° C., 18 hours): 32 µM (≈ 106 µg/mL)
Minimal inhibitory concentration (S. aureus CCARM3518; S. aureus CCARM3518, antibiotics-tolerant, 37° C., 18 hours): 32 µM (≈ 106 µg/mL)
Minimal inhibitory concentration (P. aeruginosa ATCC27853): 32 µM (≈ 106 µg/mL)
Minimal inhibitory concentration (P. aeruginosa 4007; 4007, 18 h): 32 µM (≈ 106 µg/mL)
Minimal inhibitory concentration (S. aureus ATCC25923): 32 µM (≈ 106 µg/mL)
Minimal inhibitory concentration [2]: 32 µM (≈ 106 µg/mL)
Minimal inhibitory concentration [3]: 32 µM (≈ 106 µg/mL)
Minimal inhibitory concentration (Sa. typhimurium KCTC1926): 32 µM (≈ 106 µg/mL)
cell viability (HaCaT and MCF-7 cells): 41%-42%
Minimal inhibitory concentration (E. coli CCARM1238): 32 µM (≈ 106 µg/mL)
Minimal inhibitory concentration (E. coli CCARM1229): 32 µM (≈ 106 µg/mL)
Minimal inhibitory concentration (E. coli ATCC25922): 64 µM (≈ 212 µg/mL)
Minimal inhibitory concentration (E. coli ATCC27325): 32 µM (≈ 106 µg/mL)
Minimal inhibitory concentration (B. subtilis KCTC1998): 32 µM (≈ 106 µg/mL)

SMILES: CN[C@H](CC(C)C)C(=O)N[C@H]1C(=O)N[C@@H](CC(N)=O)C(=O)N[C@H]2C(=O)N[C@H]3C(=O)N[C@H](C(=O)N[C@H](C(=O)O)c4cc(O)cc(O)c4-c4cc3ccc4O)[C@H](O)c3ccc(c(Cl)c3)Oc3cc2cc(c3O[C@@H]2O[C@H](CO)[C@@H](O)[C@H](O)[C@H]2O[C@H]2C[C@](C)(N)[C@H](O)[C@H](C)O2)Oc2ccc(cc2Cl)[C@H]1O [Vancomycin, vancomycin]
MIC (S. aureus CCARM3090): 0.5 µM (≈ 0.725 µg/mL)
MIC (S. aureus ATCC29213): 0.25 µM (≈ 0.362 µg/mL)
MIC (P. aeruginosa ATCC15692): 512 µM (≈ 742 µg/mL)
MIC (P. aeruginosa 4891): 512 µM (≈ 742 µg/mL)
MIC (S. aureus MW2): 0.25 µM (≈ 0.362 µg/mL)
MIC (S. aureus USA300): 0.25 µM (≈ 0.362 µg/mL)
MIC (S. aureus CCARM3089): 0.25 µM (≈ 0.362 µg/mL)
MIC (S. aureus CCARM3518): 0.25 µM (≈ 0.362 µg/mL)
MIC (P. aeruginosa ATCC27853): 256 µM (≈ 371 µg/mL)
MIC (P. aeruginosa 4007): 512 µM (≈ 742 µg/mL)
MIC (S. aureus ATCC25923): 0.25 µM (≈ 0.362 µg/mL)

— patent US12180252B2, “Peptide derived from PEP27 peptide and uses thereof” (priority 2021, dated 2024)
